The source of these data is patent US6479504B1, “Antagonism of immunostimulatory CpG-oligonucleotides by 4-aminoquinolines and other weak bases” (The University of Iowa Research Foundation, priority 1999, dated 2002).

The test system of data set [1] is CpG-ODN effect on thymidine uptake by WEHI 231 B-cells. The data set is described as follows: Inhibition of CpG-ODN effect on thymidine uptake by WEHI 231 B-cells treated with anti-surface IgM. The format is cell-based, murine. The following applies: Mus musculus, WEHI231; concentration required for 50% blockage of the ability of CpG-ODN to rescue WEHI 231 cells from anti-surface IgM-induced cell death; read-out: 50% Efficacy. An excerpt: The ability of analogs to inhibit an immunostimulatory effect of CpG-ODN was examined. This assay measures the reversal of the protection by CpG-ODN against surface IgM induced killing of WEHI 231 cells.

Another data set has as its system WEHI 231 cells. The following applies: mouse. As to the method: Cellular uptake of analogs was estimated by fluorescence. […] The cells were pelleted by centrifugation, and the fluorescence of the supernatant was measured after dilution with the appropriate buffer. The cell pellet was extracted with 1 ml Catrimox-14 (Iowa Biotechnology Corp., Coralville, La.), and the insoluble nucleic acids were removed by centrifugation (16,000×g, 10 min). The resulting extract was diluted with the appropriate buffer, and its fluorescence was measured. […] The fluorescence intensity and spectra were determined with a Farrand Manual Spectrofluorometer at three pH's (3.4, 7.4, 10.0). Subsequent measurements of fluorescence were performed at pH giving the highest yield (Table I).
Standard curves of the fluorescence intensity of each analog in cell culture medium and in the cell extract buffer were prepared, measurements being taken at the pH listed in the table. To examine the uptake of the analogs by cells, WEHI 231 cells were incubated with a range of concentrations of the analogs, and measured the concentration of the analog remaining in the supernatant and the amount of analog in the extract of a cell pellet using the standard curves.
The sources were a=Sigma Chemical Co., b=National Cancer Institute, c=Synthesized by LS, d=Synthesized by FMI. […] ND, not determined.

In a further data set the test system is CpG ODN 1760. The data set is described as follows: DNA thermal melting at 260 nm. The format is binding. Conditions: 0.3 moles of compound per base, MES with 150 mM KCl, pH 4.4. As to the method:
Thermal melting studies were conducted at 260 nm with a Cary spectrophotometer interfaced to a microcomputer. A thermistor fixed into a reference cuvette was used to monitor the temperature. The DNA oligomer was added to 1 mL of buffer (MES with 150 mM KCl, pH 4.4) in 1 cm path length reduced-volume quartz cells. Studies were generally conducted a at concentration of 5×10-^5M bases. […].
Structural nucleic acids with duplex or single-stranded folded conformations generally give sigmoid thermal melting curves characteristic of thermal unfolding of the structures. This unfolding results in a change in the UV spectrum. […]

Turning to `CCN(CC)CCCC(C)Nc1c2ccc(Cl)cc2nc2ccc(OC)cc12` (stereo not drawn) [Quinacrine], in data set [1], the EC50 was determined as 10.2 nM. The Cellular uptake ratio in the data set with WEHI 231 cells was 601. Further, the “Change in the thermal melting curve of the free CpG-ODN” value in the data set on CpG ODN 1760 is recorded as “did not cause any significant change”.
